Earlier results in patent US20150335557A1, “ANTI-PLAQUE ORAL COMPOSITIONS” (priority 2012, published 2015).

Settings: @ 79° F.

water solubility: 34 % w/v
Structure (SMILES): CS(C)(=O)=O [MSM, methylsulfonylmethane]
